According to patent US20100184815A1 (priority 2008, published 2010):

What was measured:
Assay type in all cases: cell-based
Gal-4 hPPARβ/δ = target: T1, Gal-4 hPPARβ/δ (Homo sapiens, UniProt Q03181); assay: Gal4-hPPARδ transient transfection reporter assay in Cos cells; details: luciferase reporter, 24 hours with compound, scale 1-5, read-out: Gal-4 hPPAR β/δ EC50 (scaled number)
T1 construct: Plasmids pGal4-hPPARα, pGal4-hPPARγ, pGal4-hPPARδ and pG5-TK-pGL3 were constructed as previously described by Staels, Bart, et al., Nature 1998 Jun; 25
T1 sequence (Q03181 171-441 limits assumed): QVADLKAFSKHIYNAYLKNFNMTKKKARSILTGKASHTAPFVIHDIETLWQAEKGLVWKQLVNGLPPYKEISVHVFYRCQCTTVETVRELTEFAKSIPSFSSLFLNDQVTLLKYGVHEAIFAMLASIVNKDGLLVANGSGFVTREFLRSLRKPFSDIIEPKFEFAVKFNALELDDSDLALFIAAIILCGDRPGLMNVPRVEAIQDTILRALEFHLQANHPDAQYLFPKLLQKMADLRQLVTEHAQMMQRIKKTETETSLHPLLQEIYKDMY
Description: (§1) Construction of recombinant plasmids. Plasmids pGal4-hPPARα, pGal4-hPPARγ, pGal4-hPPARδ and pG5-TK-pGL3 were constructed as previously described by Staels, Bart, et al., Nature 1998 Jun. 25; 393 (6687): 790-793, by Staels (Institut Pasteur de Lille, FR).
(§2) Transient transfection assays. Cos cells were seeded in 60-mm dishes at a density of 5.5×10^5 cells/dish in Dulbecco's modified Eagle's medium (DMEM) supplemented with 10% fetal calf serum (FCS) and incubated at 37° C. for 24 hours before transfection. Cells were transfected in Opti-MEM (Gibco; Invitrogen, Carlsbad, Calif.) without FCS for 3 hours at 37° C., using polyethylenimine, with reporter and expression plasmids. The plasmid pBluescript (Stratagene, La Jolla, Calif.) was used as carrier DNA to set the final amount of DNA to 5.5 μg/dish. The pCMV-b-galactosidase expression plasmid was cotransfected as a control for transfection efficiency. Transfection was stopped by the addition of DMEM supplemented with 10% FCS, and cells were then incubated at 37° C. After 16 hours, cells were trypsinized and seeded in 96-well plates at the density of 2×10^4 cells/well and incubated for 6 hours in 10% FCS-containing DMEM. Cells were then incubated for 24 hours in DMEM containing 0.2% FCS and increasing concentrations of the compound tested or vehicle (DMSO). At the end of the experiment, cells were washed once with ice-cold PBS, lysed and the luciferase and b-galactosidase assays were performed in a luminometer and spectrophotomer. Transfection efficiencies were normalized with the b-galactosidase activity assay. Half-maximal effective concentration (EC50) was estimated using Prism software (GraphPad). All transfection experiments were performed at least three times.
(§3) In the following tables, proprietary compound EC50 values for hPPAR α, β, δ and γ are shown. The EC50 value is the concentration of a drug that induces a response halfway between the baseline and maximum, and is commonly used as a measure of drug potency. EC50 values are reported on a scale of 1 through 5, wherein the value scale is defined for each receptor as follows: […]

Gal-4 hPPARα = target: T2, Gal-4 hPPARα (Homo sapiens, UniProt Q07869); assay: Gal4-hPPARα transient transfection reporter assay in Cos cells; details: luciferase reporter, 24 hours with compound, scale 1-5, read-out: Gal-4 hPPAR α EC50 (scaled number)
T2 construct: Plasmids pGal4-hPPARα, pGal4-hPPARγ, pGal4-hPPARδ and pG5-TK-pGL3 were constructed as previously described by Staels, Bart, et al., Nature 1998 Jun; 25
T2 sequence (Q07869 200-468 limits assumed): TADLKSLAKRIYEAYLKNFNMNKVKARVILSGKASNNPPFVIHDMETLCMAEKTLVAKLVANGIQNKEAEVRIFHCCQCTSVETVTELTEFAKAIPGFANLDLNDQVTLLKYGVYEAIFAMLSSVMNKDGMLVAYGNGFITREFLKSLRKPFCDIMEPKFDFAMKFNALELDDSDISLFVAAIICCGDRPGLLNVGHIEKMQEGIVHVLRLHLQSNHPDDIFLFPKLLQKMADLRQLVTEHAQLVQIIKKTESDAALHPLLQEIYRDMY
Description: as §1, §2, §3

Gal-4 hPPARγ = target: T3, Gal-4 hPPARγ (Homo sapiens, UniProt P37231); assay: Gal4-hPPARγ transient transfection reporter assay in Cos cells; details: luciferase reporter, 24 hours with compound, scale 1-5, read-out: Gal-4 hPPAR γ EC50 (scaled number)
T3 construct: Plasmids pGal4-hPPARα, pGal4-hPPARγ, pGal4-hPPARδ and pG5-TK-pGL3 were constructed as previously described by Staels, Bart, et al., Nature 1998 Jun; 25
T3 sequence (P37231 238-505 limits assumed): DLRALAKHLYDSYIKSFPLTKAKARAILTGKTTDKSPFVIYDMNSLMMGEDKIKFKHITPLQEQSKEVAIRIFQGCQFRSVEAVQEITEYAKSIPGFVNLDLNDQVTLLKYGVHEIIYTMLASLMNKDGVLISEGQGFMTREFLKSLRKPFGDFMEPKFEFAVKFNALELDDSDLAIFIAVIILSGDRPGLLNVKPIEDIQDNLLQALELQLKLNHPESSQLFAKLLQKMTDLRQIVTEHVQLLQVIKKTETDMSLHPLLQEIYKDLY
Description: as §1, §2, §3

SMILES	EC50 (Gal-4 hPPARβ/δ)	EC50 (Gal-4 hPPARα)	EC50 (Gal-4 hPPARγ)
CC(C)(Sc1ccc(C(=O)OCc2cnn(Cc3ccc(C(C)(C)C)cc3)c2)cc1)C(=O)O [Compound 6, 2-(4-(((1-(4-tert-butylbenzyl)-1H-pyrazol-4-yl)methoxy)carbonyl)phenylthio)-2-methylpropanoic acid]	> 1000 nM	1 to 50 nM	201 to 999 nM
COc1ccc(Cn2cc(COC(=O)c3ccc(SC(C)(C)C(=O)O)cc3)cn2)cc1 [Compound 8, 2-(4-(((1-(4-methoxybenzyl)-1H-pyrazol-4-yl)methoxy)carbonyl)phenylthio)-2-methylpropanoic acid]	> 1000 nM	51 to 200 nM	> 1000 nM
Cc1ccc(-n2cc(COC(=O)c3ccc(OC(C)(C)C(=O)O)cc3)c(-c3ccccc3)n2)cc1 [Compound 17, 2-methyl-2-(4-(((3-phenyl-1-p-tolyl-1H-pyrazol-4-yl)methoxy)carbonyl)phenoxy)propanoic acid]	1 to 50 nM	51 to 200 nM	201 to 999 nM
CC(C)(Sc1ccc(C(=O)OCc2cnn(-c3ccc(C(F)(F)F)cc3)c2)cc1)C(=O)O [Compound 18, 2-methyl-2-(4-(((1-(4-(trifluoromethyl)phenyl)-1H-pyrazol-4-yl)methoxy)carbonyl)phenylthio)propanoic acid]	201 to 999 nM	1 to 50 nM	201 to 999 nM
CSc1ccc(Cn2cc(COC(=O)c3ccc(SC(C)(C)C(=O)O)cc3)cn2)cc1 [Compound 20, 2-methyl-2-(4-(((1-(4-(methylthio)benzyl)-1H-pyrazol-4-yl)methoxy)carbonyl)phenylthio)propanoic acid]	> 1000 nM	1 to 50 nM	> 1000 nM
CC(C)(Sc1ccc(C(=O)OCc2cnn(Cc3ccc(-c4ccccc4)cc3)c2)cc1)C(=O)O [Compound 22, 2-(4-(((1-(biphenyl-4-ylmethyl)-1H-pyrazol-4-yl)methoxy)carbonyl)phenylthio)-2-methylpropanoic acid]	> 1000 nM	51 to 200 nM	> 1000 nM
CC(C)(Sc1ccc(C(=O)OCc2cnn(Cc3ccc(F)c(F)c3)c2)cc1)C(=O)O [Compound 24, 2-(4-(((1-(3,4-difluorobenzyl)-1H-pyrazol-4-yl)methoxy)carbonyl)phenylthio)-2-methylpropanoic acid]	> 1000 nM	51 to 200 nM	> 1000 nM
CC(C)(Sc1ccc(C(=O)OCc2cnn(Cc3ccc4ccccc4c3)c2)cc1)C(=O)O [Compound 26, 2-methyl-2-(4-(((1-(naphthalen-2-ylmethyl)-1H-pyrazol-4-yl)methoxy)carbonyl)phenylthio)propanoic acid]	> 1000 nM	1 to 50 nM	> 1000 nM
CC(C)(Oc1ccc(C(=O)OCc2cnn(Cc3ccc4c(c3)C(C)(C)CCC4(C)C)c2)cc1)C(=O)O [Compound 28]	> 1000 nM	201 to 999 nM	> 1000 nM
CC(C)(Sc1ccc(C(=O)OCc2cnn(Cc3ccc4c(c3)C(C)(C)CCC4(C)C)c2)cc1)C(=O)O [Compound 29, 2-methyl-2-(4-(((1-((5,5,8,8-tetramethyl-5,6,7,8-tetrahydronaphthalen-2-yl)methyl)-1H-pyrazol-4-yl)methoxy)carbonyl)phenylthio)propanoic acid]	> 1000 nM	1 to 50 nM	> 1000 nM
CC(C)(Sc1ccc(C(=O)OCc2cnn(Cc3cccc(C(F)(F)F)c3)c2)cc1)C(=O)O [Compound 30, 2-methyl-2-(4-(((1-(3-(trifluoromethyl)benzyl)-1H-pyrazol-4-yl)methoxy)carbonyl)phenylthio)propanoic acid]	> 1000 nM	1 to 50 nM	> 1000 nM
CC(C)(Sc1ccc(C(=O)OCc2cnn(Cc3ccc(OC(F)(F)F)cc3)c2)cc1)C(=O)O [Compound 32, 2-methyl-2-(4-(((1-(4-(trifluoromethoxy)benzyl)-1H-pyrazol-4-yl)methoxy)carbonyl)phenylthio)propanoic acid]	> 1000 nM	1 to 50 nM	> 1000 nM
